From patent US12606541B2, “PPARg modulators and methods of use” (Eisai R&D Management Co., Ltd., priority 2020, dated 2026) come the findings set out here.

One assay addresses T1, His6-TEV-PPARγ-(234-505) (Homo sapiens, UniProt P37231).
T1 construct: The His6-TEV-PPARγ-(234-505) protein for assay was expressed and purified; TEV cleavage site (N); made in house
T1 sequence (P37231 234-505): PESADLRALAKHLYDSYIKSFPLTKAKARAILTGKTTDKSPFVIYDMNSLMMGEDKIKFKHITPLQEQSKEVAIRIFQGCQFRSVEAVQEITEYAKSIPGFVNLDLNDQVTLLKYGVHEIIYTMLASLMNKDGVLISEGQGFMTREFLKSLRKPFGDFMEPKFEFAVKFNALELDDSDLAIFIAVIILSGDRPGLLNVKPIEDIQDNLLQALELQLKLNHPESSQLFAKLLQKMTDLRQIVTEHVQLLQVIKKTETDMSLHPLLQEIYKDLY
Put plainly: TR-FRET Assay to Measure Co-R Peptide Recruitment to PPARγ. The conditions noted are these: Co-R peptide (SMRT-ID2) recruitment; top final concentration 20 μM; read-out: TR-FRET i-Ag; AC50. The format is biochemical. Put shortly: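 His-tagged PPARγ (or controls) was preincubated with compound for 20 minutes at room temperature, then 5 nM anti-His terbium antibody and 200 nM FITC-labeled SMRT-ID2 corepressor peptide (final) were added for a further hour. TR-FRET signal was normalized to percent response using 500 nM T0070907 and DMSO controls.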
(Time-resolved FRET reads energy transfer from a long-lived donor to a nearby acceptor.)

The test system of the next assay is UM-UC-9 engineered cells. Put plainly: Cell proliferation / short-term viability assay, CellTiter-Glo 144 h. To be noted: Homo sapiens, UM-UC-9, 144 h, read-out: CTGlo 144 h UMUC9.5, G150. The format is cell-based, human. Put shortly: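 UM-UC-9 engineered assay-ready cells seeded at 500 cells/well in high-glucose DMEM/10% FBS, treated from dose-response plates, grown at 37° C, 5% CO2. CellTiter-Glo 2.0 luminescence read on day 7, with a day-0 pretreatment plate as T0 reference and DMSO wells as negative control.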
For orientation: In ATP-based viability assays light output follows the ATP content of the culture.

With `COc1cc(-c2cc(C(=O)N3CC[C@H](C(=O)NCc4ncc(N5CC(C#N)C5)cc4Cl)CC34CC4)n[nH]2)c(F)cn1` [Example 393, (S)—N-((3-chloro-5-(3-cyanoazetidin-1-yl)pyridin-2-yl)methyl)-4-(5-(5-fluoro-2-methoxypyridin-4-yl)-1H-pyrazole-3-carbonyl)-4-azaspiro[2.5]octane-7-carboxamide], the AC50 on His6-TEV-PPARγ-(234-505) stood at 9.2 nM. The IC50 with UM-UC-9 engineered cells is 106 nM.

Consider `COc1cc(-c2cc(C(=O)N3CC[C@H](C(=O)NCc4nc(C)oc4C(F)(F)F)CC34CC4)n[nH]2)c(F)cn1` [Example 394, (S)-4-(5-(5-fluoro-2-methoxypyridin-4-yl)-1H-pyrazole-3-carbonyl)-N-((2-methyl-5-(trifluoromethyl)oxazol-4-yl)methyl)-4-azaspiro[2.5]octane-7-carboxamide], for which the AC50 on His6-TEV-PPARγ-(234-505) was determined as 8.7 nM. The IC50 in the assay on UM-UC-9 engineered cells was found to be 24.5 nM.

Take `COc1cc(-c2cc(C(=O)N3CC[C@H](C(=O)NCc4nccnc4C)CC34CC4)n[nH]2)c(F)cn1` [Example 397, (S)-4-(5-(5-fluoro-2-methoxypyridin-4-yl)-1H-pyrazole-3-carbonyl)-N-((3-methylpyrazin-2-yl)methyl)-4-azaspiro[2.5]octane-7-carboxamide]: on His6-TEV-PPARγ-(234-505), the AC50 amounted to 23.4 nM. In the assay with UM-UC-9 engineered cells, the IC50 worked out at 59.9 nM.

For `COc1cc(-c2cc(C(=O)N3CC[C@H](C(=O)NCc4ncc(F)cc4F)CC34CC4)n[nH]2)c(F)cn1` [Example 400, (S)—N-((3,5-difluoropyridin-2-yl)methyl)-4-(5-(5-fluoro-2-methoxypyridin-4-yl)-1H-pyrazole-3-carbonyl)-4-azaspiro[2.5]octane-7-carboxamide], the AC50 on His6-TEV-PPARγ-(234-505) came to 12.6 nM. Also, in the assay on UM-UC-9 engineered cells, the IC50 was 24.3 nM.

As for `COc1cnc(CNC(=O)[C@H]2CCN(C(=O)c3cc(-c4cc(OC)ncc4F)[nH]n3)C3(CC3)C2)c(Cl)c1` [Example 402, (S)—N((3-chloro-5-methoxypyridin-2-yl)methyl)-4-(5-(5-fluoro-2-methoxypyridin-4-yl)-1H-pyrazole-3-carbonyl)-4-azaspiro[2.5]octane-7-carboxamide], on His6-TEV-PPARγ-(234-505), the AC50 came to 10.8 nM. In addition, the IC50 with UM-UC-9 engineered cells is 2.9 nM.

In the case of `COc1cc(-c2cc(C(=O)N3CC[C@H](C(=O)NCc4ncc(F)cc4N4CCN(C)CC4)CC34CC4)n[nH]2)c(F)cn1` [Example 404, (S)-4-(5-(5-fluoro-2-methoxypyridin-4-yl)-1H-pyrazole-3-carbonyl)-N-((5-fluoro-3-(4-methylpiperazin-1-yl)pyridin-2-yl)methyl)-4-azaspiro[2.5]octane-7-carboxamide], the AC50 on His6-TEV-PPARγ-(234-505) was found to be 164 nM. Also, the IC50 in the assay on UM-UC-9 engineered cells was 887 nM.

On to `COc1cc(-c2cc(C(=O)N3CC[C@H](C(=O)NC4CN(CC5(F)CC5)C4)CC34CC4)n[nH]2)c(F)cn1` [Example 406, (S)-4-(5-(5-fluoro-2-methoxypyridin-4-yl)-1H-pyrazole-3-carbonyl)-N-(1-((1-fluorocyclopropyl)methyl)azetidin-3-yl)-4-azaspiro[2.5]octane-7-carboxamide], for which, at His6-TEV-PPARγ-(234-505), the AC50 amounted to 34.1 nM. In addition, the IC50 in the assay with UM-UC-9 engineered cells stood at 73.3 nM.

In the case of `COc1cc(-c2cc(C(=O)N3CC[C@H](C(=O)NC4CCC5(CC4)N([S+]([O-])C(C)(C)C)CC5(F)F)CC34CC4)n[nH]2)c(F)cn1` (stereo partly drawn) [Example 409, (7S)—N-(1-(tert-butylsulfinyl)-3,3-difluoro-1-azaspiro[3.5]nonan-7-yl)-4-(5-(5-fluoro-2-methoxypyridin-4-yl)-1H-pyrazole-3-carbonyl)-4-azaspiro[2.5]octane-7-carboxamide], the AC50 on His6-TEV-PPARγ-(234-505) was found to be 30.9 nM. The IC50 in the assay on UM-UC-9 engineered cells turned out to be 39.1 nM.

On to `COc1cc(-c2cc(C(=O)N3CC[C@H](C(=O)NCc4nnc(C)cc4C)CC34CC4)n[nH]2)c(F)cn1` [Example 412, (S)—N-((4,6-dimethylpyridazin-3-yl)methyl)-4-(5-(5-fluoro-2-methoxypyridin-4-yl)-1H-pyrazole-3-carbonyl)-4-azaspiro[2.5]octane-7-carboxamide], for which, on His6-TEV-PPARγ-(234-505), the AC50 stood at 79.2 nM. The IC50 with UM-UC-9 engineered cells came out at 198 nM.

As for `COc1cc(-c2cc(C(=O)N3CC[C@@H](C(=O)NCc4ncc(Cl)cn4)CC34CC4)n[nH]2)c(F)cn1` [Example 413, (R)—N-((5-chloropyrimidin-2-yl)methyl)-4-(5-(5-fluoro-2-methoxypyridin-4-yl)-1H-pyrazole-3-carbonyl)-4-azaspiro[2.5]octane-7-carboxamide], at His6-TEV-PPARγ-(234-505), the AC50 is 15.2 nM. For the same molecule, in the assay with UM-UC-9 engineered cells, the IC50 turned out to be 55 nM.

Turning to `COc1cc(-c2cc(C(=O)N3CC[C@H](C(=O)NCc4cccc5ccnn45)CC34CC4)n[nH]2)c(F)cn1` [Example 416, (S)-4-(5-(5-fluoro-2-methoxypyridin-4-yl)-1H-pyrazole-3-carbonyl)-N-(pyrazolo[1,5-a]pyridin-7-ylmethyl)-4-azaspiro[2.5]octane-7-carboxamide], the AC50 on His6-TEV-PPARγ-(234-505) turned out to be 6.1 nM. The IC50 in the assay with UM-UC-9 engineered cells is 7.4 nM.

As for `COc1cc(-c2cc(C(=O)N3CC[C@H](C(=O)NC4CCN(C5COC5)CC4)CC34CC4)n[nH]2)c(F)cn1` [Example 417, (S)-4-(5-(5-fluoro-2-methoxypyridin-4-yl)-1H-pyrazole-3-carbonyl)-N-(1-(oxetan-3-yl)piperidin-4-yl)-4-azaspiro[2.5]octane-7-carboxamide], on His6-TEV-PPARγ-(234-505), the AC50 is 681 nM. Also, in the assay with UM-UC-9 engineered cells, the IC50 came to 1160 nM.

Take `COc1cc(-c2cc(C(=O)N3CCC(C(=O)NC4CC5COCC(C4)N5C)CC34CC4)n[nH]2)c(F)cn1` (stereo not drawn) [Example 419-A]: at His6-TEV-PPARγ-(234-505), the AC50 was 359 nM. Besides, in the assay on UM-UC-9 engineered cells, the IC50 worked out at 854 nM.

With `COc1cc(-c2cc(C(=O)N3CC[C@H](C(=O)NC4CCN(S(C)(=O)=O)CC4)CC34CC4)n[nH]2)c(F)cn1` [Example 420, (S)-4-(5-(5-fluoro-2-methoxypyridin-4-yl)-1H-pyrazole-3-carbonyl)-N-(1-(methylsulfonyl)piperidin-4-yl)-4-azaspiro[2.5]octane-7-carboxamide], the AC50 at His6-TEV-PPARγ-(234-505) turned out to be 231 nM. In the assay with UM-UC-9 engineered cells, the IC50 was 1370 nM.

As for `COc1cc(-c2cc(C(=O)N3CC[C@H](C(=O)N[C@@H]4CN(c5ccc(C)nc5)C[C@H]4F)CC34CC4)n[nH]2)c(F)cn1` [Example 426, (S)—N-((3R,4R)-4-fluoro-1-(6-methylpyridin-3-yl)pyrrolidin-3-yl)-4-(5-(5-fluoro-2-methoxypyridin-4-yl)-1H-pyrazole-3-carbonyl)-4-azaspiro[2.5]octane-7-carboxamide], the AC50 on His6-TEV-PPARγ-(234-505) was determined as 24 nM. For the same molecule, the IC50 with UM-UC-9 engineered cells was determined as 50.9 nM.

As to `COc1cc(-c2cc(C(=O)N3CC[C@H](C(=O)N[C@H]4CN(c5ccc(C)nc5)C[C@@H]4F)CC34CC4)n[nH]2)c(F)cn1` [Example 427, (S)—N-((3S,4S)-4-fluoro-1-(6-methylpyridin-3-yl)pyrrolidin-3-yl)-4-(5-(5-fluoro-2-methoxypyridin-4-yl)-1H-pyrazole-3-carbonyl)-4-azaspiro[2.5]octane-7-carboxamide], the AC50 on His6-TEV-PPARγ-(234-505) turned out to be 10.5 nM. Further, the IC50 with UM-UC-9 engineered cells stood at 4.2 nM.

Regarding `COc1cc(-c2cc(C(=O)N3CC[C@H](C(=O)N[C@H]4CN(c5ccc(C)nc5)C[C@H]4F)CC34CC4)n[nH]2)c(F)cn1` [Example 428, (S)—N-((3S,4R)-4-fluoro-1-(6-methylpyridin-3-yl)pyrrolidin-3-yl)-4-(5-(5-fluoro-2-methoxypyridin-4-yl)-1H-pyrazole-3-carbonyl)-4-azaspiro[2.5]octane-7-carboxamide], on His6-TEV-PPARγ-(234-505), the AC50 was found to be 54.7 nM. Besides, the IC50 with UM-UC-9 engineered cells amounted to 141 nM.

For the molecule `COc1cc(-c2cc(C(=O)N3CC[C@H](C(=O)NC4C5CN(C6COC6)CC54)CC34CC4)n[nH]2)c(F)cn1` (stereo partly drawn) [Example 429, (7S)-4-(5-(5-fluoro-2-methoxypyridin-4-yl)-1H-pyrazole-3-carbonyl)-N-(3-(oxetan-3-yl)-3-azabicyclo[3.1.0]hexan-6-yl)-4-azaspiro[2.5]octane-7-carboxamide], at His6-TEV-PPARγ-(234-505), the AC50 was determined as 347 nM. The IC50 in the assay on UM-UC-9 engineered cells was determined as 1040 nM.

`COc1cc(-c2cc(C(=O)N3CC[C@H](C(=O)Nc4cnn5ccc(Cl)nc45)CC34CC4)n[nH]2)c(F)cn1` [Example 430, (S)—N-(5-chloropyrazolo[1,5-a]pyrimidin-3-yl)-4-(5-(5-fluoro-2-methoxypyridin-4-yl)-1H-pyrazole-3-carbonyl)-4-azaspiro[2.5]octane-7-carboxamide]: the AC50 on His6-TEV-PPARγ-(234-505) was determined as 5 nM. For the same molecule, the IC50 with UM-UC-9 engineered cells came out at 8.4 nM.

Turning to `COc1cc(-c2cc(C(=O)N3CC[C@H](C(=O)NCc4nccnc4C(F)(F)F)CC34CC4)n[nH]2)c(F)cn1` [Example 432, (S)-4-(5-(5-fluoro-2-methoxypyridin-4-yl)-1H-pyrazole-3-carbonyl)-N-((3-(trifluoromethyl)pyrazin-2-yl)methyl)-4-azaspiro[2.5]octane-7-carboxamide], the AC50 at His6-TEV-PPARγ-(234-505) was determined as 4.1 nM. Also, in the assay on UM-UC-9 engineered cells, the IC50 amounted to 9.1 nM.

With `COc1cc(-c2cc(C(=O)N3CC[C@H](C(=O)NCc4ncc(N5CC(C)NC(C)C5)cc4Cl)CC34CC4)n[nH]2)c(F)cn1` (stereo partly drawn) [Example 434, (7S)—N-((3-chloro-5-(3,5-dimethylpiperazin-1-yl)pyridin-2-yl)methyl)-4-(5-(5-fluoro-2-methoxypyridin-4-yl)-1H-pyrazole-3-carbonyl)-4-azaspiro[2.5]octane-7-carboxamide], the AC50 on His6-TEV-PPARγ-(234-505) worked out at 11.9 nM. Further, in the assay with UM-UC-9 engineered cells, the IC50 worked out at 45.3 nM.
